Reference: PMC6030159 (Scientific Reports, 2018)
Entries after “also recorded” stand apart in the source; their conditions may differ.

Legend:
MXD1 (MAD1) bHLHZip = MXD1 (MAD1) bHLHZip (Homo sapiens, UniProt Q05195); test: SPR binding to MXD1 (MAD1)
Protocol: (§1) The MYC SPR assay was carried out as described above with MYCbHLHZip immobilized to a level of 800–1000 RU. For kinetic binding experiments, a Langmuir 1:1 binding event was applied using the Biacore T200 Evaluation Software 2.0 (GE Healthcare) to determine association (ka) and dissociation (kd) constants of the compound and to calculate affinity (KD) by the formula; KD = kd/ka. Binding responses from equilibrium binding experiments were plotted against compound concentration and KD values were determined at 50% of the theoretical Rmax with the formula Rmax = (MW analyte/MW ligand) × immobilized ligand level on the chip (RU) × stoichiometry (1:1). Same coupling method described above was used to immobilize the control proteins. MAX was immobilized to approximately 2000 RU, MAD to 600 RU, BSA to 1000 RU, p53 to 3000 RU and BCL-XL, to 500 RU.

MAX bHLHZip [1] = target: T1, MAX bHLHZip (Homo sapiens, UniProt P61244); test: MST direct binding to MAX; conditions: 3 μM MYCMI-6, MAX titrated
T1 sequence (P61244 23-102 limits assumed): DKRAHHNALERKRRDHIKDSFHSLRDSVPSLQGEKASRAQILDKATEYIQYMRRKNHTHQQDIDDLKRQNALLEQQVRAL
Protocol: To determine whether MYCMI-6 binds directly to MYC (or MAX), MST and SPR were applied. The bHLHZip domains of MYC or MAX, respectively (Suppl. Fig. S1C), were titrated and mixed with 3 μM of MYCMI-6.
MST was carried out on a Monolith NT.115 with blue/green filters, kindly provided by Luca Jovine, Karolinska Institutet Huddinge, according to manufacturer’s protocol (NanoTemper). MYCbHLHZip, MAXbHLHZip, BSA and BCL-XL recombinant proteins and compounds were diluted and titrated in PBS supplemented with 0.05% Triton-X-114 or 0.05% Tween-20. Titration of molecules was carried out in 16 PCR tubes into which a fixed concentration of fluorescent molecule was added. The mixture was applied to capillaries (standard treated, NanoTemper), and scanned in the Monolith NT.115 to measure initial fluorescence of molecule. MST was induced and fluorescence was measured during 40 seconds. Double measurements were carried out (MST power of 20% and 40%, or 40% and 60%) for each sample. Delta fluorescence or relative fluorescence of fluorescent molecule normalized to control vehicle was plotted against titrated molecule concentration. The protein labeling kit GREEN-NHS (NanoTemper) was used to label primary amines of proteins according to manufacture’s protocol.

MAX bHLHZip [2] = target: T1, MAX bHLHZip; test: SPR binding to MAX
Protocol: as §1

YFP = test: SPR binding to YFP; conditions: data not shown
MYCN and MAX proteins = test: Western blot of MYCN and MAX in SK-N-DZ and Kelly cells; format: cell-based; conditions: 2.5 µM, 17 hours
Protocol: These assays were performed essentially as described in[67],[68]. […] C) MST of labeled MYC (approximately 200 nM) titrated with MYCMI-6 as indicated. Data are shown as mean ± standard deviation of 5 biological repeats. Supplemental Figure S5. Characterization of the binding of MYCMI-6 and other MYC:MAX inhibitory compounds on MYC and different control proteins by surface plasmon resonance (SPR). All sensorgrams are reference surface subtracted. A) SPR assay of MYCMI-6 injected over immobilized MYC in an equilibrium binding experiment where the theoretical Rmax is 23 RU. B) SPR assay of KJ-Pyr-9 injected over immobilized MYC. Theoretical Rmax is 29 RU. C) Sensorgram of MAX SPR assay. MYCMI-6 was injected at various concentrations over immobilized MAX bHLHZip (theoretical Rmax of 24 RU). D) Sensorgram of MAD SPR assay. MYCMI-6 was injected at various concentrations over immobilized GST-MAD bHLHZip (theoretical Rmax of 24 RU). E) Sensorgram of the BCL-XL SPR assay. MYCMI-6 was injected at various concentrations over immobilized BCL-XL (theoretical Rmax of 14 RU). F) Sensorgram of the BSA SPR assay. MYCMI-6 was injected at various concentrations over immobilized BSA (theoretical Rmax of 5 RU). Supplemental Figure S6. Expression of MYCN and MAX proteins after MYCMI-6 treatment in MYCN-amplified neuroblastoma cells. […]

BCL-XL = test system: T2, BCL-XL; test: SPR binding to BCL-XL
T2 construct: purchased Abcam
Protocol: as §1

hTERT = test system: hTERT; set-up: method as in PMID 23173022; conditions: found artificial, unspecific DNA binding; cited from earlier work
[3] = test system: Burkitt's lymphoma cell lines Mutu, Daudi and ST486; test: Growth of Burkitt's lymphoma cell lines; format: cell-based
Protocol: Cell proliferation assays. Cell growth and viability was estimated in triplicates with WST-1 (Roche) or Resazurin sodium salt (Sigma-Aldrich) assays in medium at 37°C and 5% CO 2 for 2 hours after which absorbance or fluorescence, respectively, was measured with an Omega Fluostar (BMG Labtech) in a 96 well plate format. Cell counting was done in 96 well plates with CellTracker Green (ThermoFisher) for 30 min in the incubator, after which DAPI was added for 5 min. Images were taken in the green (FITC) and blue (DAPI) channels using a fluorescence microscope (ImageXpress Micro, Molecular Devices). […]
0.7% agarose. […]

MXD1 (MAD1) bHLHZip, sequence (Q05195 56-137 limits assumed): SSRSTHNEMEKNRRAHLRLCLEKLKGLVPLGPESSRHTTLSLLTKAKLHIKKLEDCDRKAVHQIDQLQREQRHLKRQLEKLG

CCOc1ccc2nc3cc(/N=N/c4ccc(N)nc4N)ccc3c(N)c2c1 [MYCMI-6]
binding to MXD1 (MAD1) (SPR) (MXD1 (MAD1) bHLHZip): negligible | binding to MAX bHLHZip (MST) (MAX bHLHZip [1]): no obvious changes; also recorded: did not bind to MAX | binding to MAX (SPR) (MAX bHLHZip [2]): negligible; also recorded: did not bind to MAX | binding to YFP (SPR) (YFP): negligible | expression of MYCN and MAX (western blot) (MYCN and MAX proteins): maintaining the expression | fold lower affinity for BCL-XL than for MYC (BCL-XL): ≥ 5 fold | binding to BCL-XL, % of the theoretical maximum (SPR) (BCL-XL; 2 μM MYCMI-6): 10% | IC50 for hTERT relative to MYC:MAX in vitro (hTERT): approximately 10 fold | GI50 ([3]; Burkitts lymphoma cell, Mutu, Daudi, ST486, read-out: average GI50, Burkitt's lymphoma cells): 500 nM | lowest IC50/GI50 of tumor cell growth ([3]; neuroblastoma and Burkitt's lymphoma cells with deregulated MYCN/MYC, as low as): ≥ 500 nM
